These results are taken from US12570683B2, “Polymorphic form of reduced beta-nicotinamide mononucleotide disodium salt, and preparation method therefor and use thereof” (EFFEPHARM (SHANGHAI) CO., LTD., priority 2022, dated 2026).

Each structure is given as a SMILES string.

Type in all cases: physicochemical
The nature of data set [1]: Stability, placed openly in stability chamber at 25° C. and 65% RH. The conditions noted are these: open.
Data set [2] can be described thus: Stability, placed openly in stability chamber at 4° C. and 75% RH. The conditions noted are these: open.
Data set [3] in a line: Exposure in air at 2-8° C., relative humidity 70-80% (crystal form transformation by absorbing water). The conditions noted are these: RH 70-80%. An excerpt:
Moisture (KF) determination method: MC-2000 automatic micro-moisture tester from Min Measure Instrument and Equipment (Xiamen) Co., Ltd. and Karl Fischer reagent from Nanjing Chemical Reagent Co., Ltd.

The mark [4] stands for this setting: 0 day, listed as amorphous solid, disodium salt.
Where [5] appears, read: 1 day, listed as amorphous solid, disodium salt.

Turning to `NC(=O)C1=CN([C@@H]2O[C@H](COP(=O)([O-])[O-])[C@@H](O)[C@H]2O)C=CC1.[Na+].[Na+]` [Amorphous Solids, reduced β-nicotinamide mononucleotide disodium salt], the Appearance of solid entry in data set [1] (0 day) is “(powders)”; in data set [1] (1 day, disodium salt), “(oil)”; in data set [1] (setting [5]) it was “the powder absorbed water and turned into an oil”; in data set [2] (5 days) it was “the powder solid absorbed water and became viscous to form a mass”; in data set [2] (18 days, disodium salt), “the color became darker”. Besides, the “NMNH disodium salt purity (HPLC, % area)” value in data set [1] (0 day, disodium salt) stood at 99.30 % area; in data set [1] (setting [4]), 99.30 % area; in data set [1] (1 day, disodium salt), 99.02 % area; in data set [1] (setting [5]), 99.02 % area; in data set [2] (0 day, disodium salt), 99.30 % area; in data set [2] (setting [4]) it was 99.30 % area. Also, the “NMNH disodium salt purity (HPLC, % area)” value worked out at 99.26 % area in data set [2] (5 day, disodium salt); 99.26 % area in data set [2] (5 day, listed as amorphous solid, disodium salt); 99.17 % area in data set [2] (18 day, disodium salt); 99.17 % area in data set [2] (18 day, listed as amorphous solid, disodium salt).
Turning to `NC(=O)C1=CN([C@@H]2O[C@H](COP(=O)([O-])[O-])[C@@H](O)[C@H]2O)C=CC1.[Na+].[Na+]` [Crystal form A, reduced β-nicotinamide mononucleotide disodium salt], the “NMNH disodium salt purity (HPLC, % area)” value was 99.33 % area in data set [1] (0 day, disodium salt); 99.33 % area in data set [1] (0 day, listed as crystal form A, disodium salt); 99.27 % area in data set [1] (1 day, disodium salt); 99.01 % area in data set [1] (5 day); 99.33 % area in data set [2] (0 day, disodium salt); 99.35 % area in data set [2] (5 day, disodium salt). Further, the “NMNH disodium salt purity (HPLC, % area)” value in data set [2] (18 day, disodium salt) was 99.33 % area; in data set [2] (18 day, listed as crystal form A, disodium salt), 99.33 % area. Besides, the Appearance of solid result in data set [1] (5 days) is “still a crystal powder”; in data set [2] (18 days, disodium salt), “still a crystal powder”.
As to `NC(=O)C1=CN([C@@H]2O[C@H](COP(=O)([O-])[O-])[C@@H](O)[C@H]2O)C=CC1.[Na+].[Na+]` [crystal form B, reduced β-nicotinamide mononucleotide disodium salt], in data set [3] (after 30 days), the “Moisture (KF) after exposure” value came to 29% and the “Resulting solid crystal form” value is recorded as “crystal form A”.
As for `NC(=O)C1=CN([C@@H]2O[C@H](COP(=O)([O-])[O-])[C@@H](O)[C@H]2O)C=CC1.[Na+].[Na+]` [crystal form C, reduced β-nicotinamide mononucleotide disodium salt], in data set [3] (after 24 hours), the “Moisture (KF) after exposure” value is recorded as 24% and the “Resulting solid crystal form” value is recorded as “crystal form A”.
